Experimental data taken from PubChem BioAssay (NCI).
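Briefly, cells in 96-well plates were exposed to five compound concentrations for 48 h, and endpoints were estimated by linear interpolation. At the GI50, growth is halved. At the TGI there is no net growth.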

Columns and labels:
Assay in all cases: inhibition of tumour cell growth, NCI panel, 48 h
CCRF-CEM leukemia = tested on: CCRF-CEM leukemia
786-0 renal = tested on: 786-0 renal
SF-268 CNS = tested on: SF-268 CNS
NCI-H460 lung = tested on: NCI-H460 lung
SR leukemia = tested on: SR leukemia
SNB-19 CNS = tested on: SNB-19 CNS
NCI-H23 lung = tested on: NCI-H23 lung
OVCAR-8 ovarian = tested on: OVCAR-8 ovarian
SK-MEL-2 melanoma = tested on: SK-MEL-2 melanoma
RXF 393 renal = tested on: RXF 393 renal

Row | SMILES | TGI (CCRF-CEM leukemia) | TGI (786-0 renal) | TGI (SF-268 CNS) | TGI (NCI-H460 lung) | TGI (SR leukemia) | TGI (SNB-19 CNS) | TGI (NCI-H23 lung) | TGI (OVCAR-8 ovarian) | TGI (SK-MEL-2 melanoma) | GI50 (786-0 renal) | GI50 (SF-268 CNS) | GI50 (NCI-H460 lung) | GI50 (SR leukemia) | GI50 (SNB-19 CNS) | GI50 (NCI-H23 lung) | GI50 (OVCAR-8 ovarian) | GI50 (SK-MEL-2 melanoma) | TGI (RXF 393 renal) | GI50 (CCRF-CEM leukemia) | GI50 (RXF 393 renal)
1 | Cc1ccc(N2C(=O)/C(=C/c3ccc(N(CCC#N)CCC#N)cc3C)N=C2c2cc([N+](=O)[O-])ccc2Cl)cc1 | > 100 µM | > 100 µM | > 100 µM | > 100 µM | > 100 µM | > 100 µM | > 100 µM | > 100 µM | > 100 µM | – | – | – | – | – | – | – | – | – | – | –
2 | CC1=Nn2c(nnc2-c2ccc(N)cc2)NC(C)(C)C1 | > 100 µM | > 100 µM | > 100 µM | > 100 µM | – | > 100 µM | > 100 µM | – | > 100 µM | – | – | – | – | – | – | – | – | – | – | –
3 | C[C@@H]1C[C@@]2(O[C@@H]2C)C(=O)O[C@@H]2CCN3CC=C(COC(=O)[C@]1(C)O)[C@H]23 | > 100 µM | > 100 µM | > 100 µM | > 100 µM | – | > 100 µM | > 100 µM | > 100 µM | > 100 µM | – | – | – | – | – | – | – | – | – | – | –
4 | COc1ccc2c(c1)CC1c3c(cc4c(c3-2)OCO4)CCN1C (centres undefined) | > 100 µM | > 100 µM | – | 60.4 µM | – | > 100 µM | 73.9 µM | 70.4 µM | 72.3 µM | – | – | – | – | – | – | – | – | – | – | –
5 | CSC1C(=O)c2ccccc2/C(=N/Nc2nc3ccccc3s2)C1C (centres undefined) | – | 19.7 µM | 19.1 µM | 25.7 µM | 2.52 µM | > 50 µM | 28.3 µM | 28.6 µM | 18 µM | 10.1 µM | 7.96 µM | 11 µM | 0.843 µM | 19.9 µM | 11.2 µM | 10.7 µM | 7.34 µM | – | – | –
6 | O=C1C(=O)c2ccccc2C(O)=C1CCCCCCCCC1CCCCC1 | 13.6 µM | 18.9 µM | 22.6 µM | 15.9 µM | 54.9 µM | 25.1 µM | 14.5 µM | 29.5 µM | 30.2 µM | – | – | – | – | – | – | – | – | – | – | –
7 | N#CC(C#N)=C1SCC(=O)CS1 | > 100 µM | > 100 µM | > 100 µM | > 100 µM | > 100 µM | > 100 µM | > 100 µM | > 100 µM | – | – | – | – | – | – | – | – | – | > 100 µM | – | –
8 | C/C(=N\O)C(CN1CCCCC1)C(c1ccccc1)c1c(O)c2ccccc2oc1=O (centres undefined) | > 10 µM | > 100 µM | > 100 µM | – | – | > 100 µM | > 100 µM | > 100 µM | > 100 µM | – | – | – | – | – | – | – | – | > 100 µM | – | –
9 | COc1cc([C@@H]2OC(=O)C3C2C(=O)O[C@H]3c2cc(OC)c(OC)c(OC)c2)cc(OC)c1OC (some centres undefined) | > 100 µM | > 100 µM | > 100 µM | > 100 µM | – | > 100 µM | > 100 µM | > 100 µM | > 100 µM | – | – | – | – | – | – | – | – | > 100 µM | – | –
10 | Cc1cc(=O)oc2cc(OCc3nc4ccccc4c(=O)[nH]3)ccc12 | > 100 µM | > 100 µM | > 100 µM | > 100 µM | – | > 100 µM | > 100 µM | > 100 µM | > 100 µM | – | – | – | – | – | – | – | – | > 100 µM | – | –
11 | c1ccc(SC(CCCCOC2CCCCO2)Sc2ccccc2)cc1 (centres undefined) | 93.1 µM | > 100 µM | > 100 µM | > 100 µM | – | > 100 µM | > 100 µM | > 100 µM | > 100 µM | – | – | – | – | – | – | – | – | > 100 µM | – | –
12 | O=C1c2c(nc3ccccc3c2-c2ccccc2)CN1Nc1ccccc1 | > 100 µM | > 100 µM | > 100 µM | – | > 100 µM | – | – | > 100 µM | > 100 µM | – | – | – | – | – | – | – | – | – | – | –
13 | COc1cc(-c2oc3c(OC)c(O)c(OC)c(O)c3c(=O)c2OC)ccc1O | > 100 µM | > 100 µM | – | > 100 µM | > 100 µM | > 100 µM | > 100 µM | > 100 µM | 74.9 µM | – | – | – | – | – | – | – | – | – | – | –
14 | O=C(/C=C/c1ccc(C(F)(F)F)cc1)c1ccc(Nc2nc(NCCO)nc(N3CCOCC3)n2)cc1 | 6.61 µM | 3.1 µM | 11.1 µM | 4.44 µM | > 100 µM | – | 6.97 µM | 12.4 µM | 21.5 µM | 1.65 µM | 2.68 µM | 2.15 µM | 3.1 µM | – | 2.55 µM | 3.25 µM | 8.66 µM | 3.26 µM | 2.41 µM | 1.63 µM
15 | Cn1c(=O)c(C(=O)NC(=O)OCc2ccccc2)cn(CCSCCOC(=O)NCCCCCCNC(=O)OCCSCCn2cc(C(=O)NC(=O)OCc3ccccc3)c(=O)n(C)c2=O)c1=O | > 100 µM | > 100 µM | > 100 µM | > 100 µM | – | > 100 µM | > 100 µM | > 100 µM | > 100 µM | – | – | – | – | – | – | – | – | > 100 µM | – | –
16 | COc1cc([N+](=O)[O-])c(OC)cc1-c1nc2sc(Cl)cn2c1/C=N/NC(=N)N/N=C/c1c(-c2cc(OC)c([N+](=O)[O-])cc2OC)nc2sc(Cl)cn12 | – | 3.29 µM | – | 7.13 µM | – | – | – | – | – | 1.84 µM | – | 2.57 µM | – | – | – | – | – | – | – | –
17 | COc1cc2cccc(NC(=O)c3cc(OC)c(OC)c(OC)c3Br)c2cc1OC | 21.5 µM | > 100 µM | 59.3 µM | 36.5 µM | – | > 100 µM | 34.4 µM | 85.4 µM | 49 µM | – | – | – | – | – | – | – | – | – | – | –
18 | CC1(C)C2C/C(=C\c3ccccc3)C(=O)C1C2 (centres undefined) | > 100 µM | > 100 µM | > 100 µM | > 100 µM | – | > 100 µM | > 100 µM | > 100 µM | > 100 µM | – | – | – | – | – | – | – | – | > 100 µM | – | –
19 | C=C(C)[C@H](O)C(O)CC(C)[C@@H]1CCC23CC12CCC1[C@@]2(C)CCC(OC(C)=O)C(C)(C)C2CC(OC2OC(COC(C)=O)C(O)C(O)C2O)[C@]13C (some centres undefined) | 9.7 µM | 13.7 µM | 11 µM | 11.5 µM | – | 11.6 µM | 14 µM | 12.8 µM | 16.2 µM | – | – | – | – | – | – | – | – | 8.49 µM | – | –
20 | Cc1ccc(/C=C2\CCCC\C2=N\O)cc1 | > 100 µM | > 100 µM | > 100 µM | > 100 µM | – | > 100 µM | > 100 µM | > 100 µM | – | – | – | – | – | – | – | – | – | – | – | –
21 | N#C[S-].[Au+].c1ccc(CN2[CH-]N(Cc3ccccc3)C(c3ccccc3)=C2c2ccccc2)cc1 | – | 1.91 µM | 2.49 µM | – | – | – | – | – | 1.26 µM | 0.444 µM | 0.431 µM | – | – | – | – | – | 0.337 µM | 1.86 µM | – | 0.546 µM
22 | C/C(=C\CC[C@]1(C)OC(C)(C)OC1CC/C(C)=C/CO[Si](c1ccccc1)(c1ccccc1)C(C)(C)C)CC/C=C/CO[Si](C)(C)C(C)(C)C (some centres undefined) | > 100 µM | > 100 µM | > 100 µM | > 100 µM | – | > 100 µM | > 100 µM | > 100 µM | > 100 µM | – | – | – | – | – | – | – | – | > 100 µM | – | –
23 | OCCNCCNc1c2ccccc2nc2oc3ccccc3c12 | 41.9 µM | 22.2 µM | 28.3 µM | 17.5 µM | – | 36.2 µM | – | > 100 µM | 43.9 µM | 7.44 µM | 7.33 µM | 4.44 µM | – | 11.6 µM | – | 9.46 µM | 20.6 µM | – | 8.97 µM | –
